# In US20090181898A1, “ABUSE-RESISTANT A[…]” (SHIRE LLC, priority 2002, published 2009):
# Experiments:
# [1] = tested on: rats; experiment: Horizontal locomotor activity after oral administration; format: in vivo, Sprague-Dawley rats; conditions: for Peak of activity (Counts per 0.2 h) / Time of Last Count Above 200 per 0.2 h / Total Activity Counts / Total Activity Counts Above Baseline: rats, oral gavage 6 mg/kg
# [2] = tested on: rats; experiment: Locomotor activity after intranasal administration with and without CMC; format: in vivo, Sprague-Dawley rats
# Description: The CMC drug mixtures were suspended thoroughly before each dose was delivered.
# [3] = tested on: rats; experiment: Locomotor activity after intravenous administration; format: in vivo, Sprague-Dawley rats; conditions: rat, 1.0 mg/kg
# [4] = Intranasal bioavailability (LC/MS/MS); conditions: rat, in vivo, other: intranasal, 3 mg/kg
# [5] = Oral bioavailability at escalating doses (LC/MS/MS); conditions: rat; for AUC(0-inf): in vivo, po; for F (fraction of intact L-lysine-d-amphetamine absorbed): oral
# [6] = tested on: stimulant abusers; experiment: Abuse liability of intravenous L-lysine-d-amphetamine in stimulant abusers; conditions: IV
# [7] = tested on: anesthetized dog; experiment: Cardiovascular effects following intravenous injection in the anesthetized dog
# [8] = Intranasal bioavailability of peptide amphetamine conjugates (HCl salts, ELISA); conditions: rat, parenteral routes
# [9] = rats, intranasal 1.0 mg/kg, 1 h
# [10] = L-lysine-d-amphetamine 50 mg, d-amphetamine 20 mg
smiles,measurement,setting,value
"CC(Cc1ccccc1)NC(=O)C(N)CCCCN [L-lysine-d-amphetamine, 2,6-diaminohexanoic acid-(1-methyl-2-phenylethyl)-amide]",Increase of total HLA activity counts over those induced by d-amphetamine,"[1]; rat, oral, 6 mg/kg, three experiments (5, 8, 12 h)",11-41%
same,Peak of activity (Counts per 0.2 h),[1]; 5 h experiment,318 Counts per 0.2 h
same,Time of Last Count Above 200 per 0.2 h,[1]; 5 h experiment,5 h
same,Total Activity Counts,[1]; 5 h experiment,6417
same,Total Activity Counts Above Baseline,[1]; 5 h experiment,5902
same,Peak of activity (Counts per 0.2 h),[1]; 12 h experiment,256 Counts per 0.2 h
same,Time of Last Count Above 200 per 0.2 h,[1]; 12 h experiment,8.6 h
same,Total Activity Counts,[1]; 12 h experiment,8423
same,Total Activity Counts Above Baseline,[1]; 12 h experiment,7487
same,Increase in activity over baseline compared to activity for d-amphetamine dosed animals,"[2]; rat, intranasal, 1.0 mg/kg",34%
same,Percent Amp (activity above baseline relative to Amp),[2]; [9],35%
same,Total Activity Counts (1 h),[2]; [9],408
same,Total Activity Counts Above Baseline,[2]; [9],237
same,Total Activity Counts (3 h),[3],767
same,"Activity above baseline, Percent Amp",[3]; 3 h,34%
same,Total Activity Counts Above Baseline,[3]; 3 h,463
same,concentration at 0 h,[4],0 ng/mL
same,AUC(0-inf),[5]; 3 mg/kg,331 ng·h/mL
same,AUC(0-inf),[5]; 6 mg/kg,1180 ng·h/mL
same,AUC(0-inf),[5]; 12 mg/kg,5170 ng·h/mL
same,AUC(0-inf),[5]; 60 mg/kg,8460 ng·h/mL
same,F (fraction of intact L-lysine-d-amphetamine absorbed),[5]; 3 mg/kg,7.2%
same,F (fraction of intact L-lysine-d-amphetamine absorbed),[5]; 6 mg/kg,12.8%
same,F (fraction of intact L-lysine-d-amphetamine absorbed),[5]; 12 mg/kg,24.6%
same,F (fraction of intact L-lysine-d-amphetamine absorbed),[5]; 60 mg/kg,9.3%
same,Euphoria or amphetamine-like subjective effects,[6]; 50 mg,did not produce euphoria or amphetamine-like subjective effects
same,Mean maximum response on Subject Liking VAS vs placebo,[6]; [10],not greater than placebo
same,Subjects (of 9) who would take the treatment again,[6]; [10],one
same,Increase in mean BP,"[7]; dog, IV, approximately 30 minutes after injection",20-50%
same,DAP % Change,"[7]; iv 0.5 mg/kg, Time 0",0%
same,DAP diastolic arterial pressure,"[7]; iv 0.5 mg/kg, Time 0",51 mmHg
same,LVP % Change,"[7]; iv 0.5 mg/kg, Time 0",0%
same,LVP left ventricular pressure,"[7]; iv 0.5 mg/kg, Time 0",86 mmHg
same,MAP % Change,"[7]; iv 0.5 mg/kg, Time 0",0%
same,MAP mean arterial pressure,"[7]; iv 0.5 mg/kg, Time 0",64 mmHg
same,SAP % Change,"[7]; iv 0.5 mg/kg, Time 0",0%
same,SAP systolic arterial pressure,"[7]; iv 0.5 mg/kg, Time 0",84 mmHg
same,DAP % Change,"[7]; iv 0.5 mg/kg, Time 5",3%
same,DAP diastolic arterial pressure,"[7]; iv 0.5 mg/kg, Time 5",52 mmHg
same,LVP % Change,"[7]; iv 0.5 mg/kg, Time 5",2%
same,LVP left ventricular pressure,"[7]; iv 0.5 mg/kg, Time 5",87 mmHg
same,MAP % Change,"[7]; iv 0.5 mg/kg, Time 5",3%
same,MAP mean arterial pressure,"[7]; iv 0.5 mg/kg, Time 5",66 mmHg
same,SAP % Change,"[7]; iv 0.5 mg/kg, Time 5",4%
same,SAP systolic arterial pressure,"[7]; iv 0.5 mg/kg, Time 5",87 mmHg
same,DAP % Change,"[7]; iv 0.5 mg/kg, Time 15",1%
same,DAP diastolic arterial pressure,"[7]; iv 0.5 mg/kg, Time 15",51 mmHg
same,LVP % Change,"[7]; iv 0.5 mg/kg, Time 15",11%
same,LVP left ventricular pressure,"[7]; iv 0.5 mg/kg, Time 15",95 mmHg
same,MAP % Change,"[7]; iv 0.5 mg/kg, Time 15",5%
same,MAP mean arterial pressure,"[7]; iv 0.5 mg/kg, Time 15",67 mmHg
same,SAP % Change,"[7]; iv 0.5 mg/kg, Time 15",11%
same,SAP systolic arterial pressure,"[7]; iv 0.5 mg/kg, Time 15",93 mmHg
same,DAP % Change,"[7]; iv 0.5 mg/kg, Time 25",8%
same,DAP diastolic arterial pressure,"[7]; iv 0.5 mg/kg, Time 25",55 mmHg
same,LVP % Change,"[7]; iv 0.5 mg/kg, Time 25",22%
same,LVP left ventricular pressure,"[7]; iv 0.5 mg/kg, Time 25",105 mmHg
same,MAP % Change,"[7]; iv 0.5 mg/kg, Time 25",15%
same,MAP mean arterial pressure,"[7]; iv 0.5 mg/kg, Time 25",73 mmHg
same,SAP % Change,"[7]; iv 0.5 mg/kg, Time 25",25%
same,SAP systolic arterial pressure,"[7]; iv 0.5 mg/kg, Time 25",104 mmHg
same,DAP % Change,"[7]; iv 0.5 mg/kg, Time 30",14%
same,DAP diastolic arterial pressure,"[7]; iv 0.5 mg/kg, Time 30",58 mmHg
same,LVP % Change,"[7]; iv 0.5 mg/kg, Time 30",26%
same,LVP left ventricular pressure,"[7]; iv 0.5 mg/kg, Time 30",108 mmHg
same,MAP % Change,"[7]; iv 0.5 mg/kg, Time 30",21%
same,MAP mean arterial pressure,"[7]; iv 0.5 mg/kg, Time 30",77 mmHg
same,SAP % Change,"[7]; iv 0.5 mg/kg, Time 30",28%
same,SAP systolic arterial pressure,"[7]; iv 0.5 mg/kg, Time 30",107 mmHg
same,DAP % Change,"[7]; iv 1.0 mg/kg, Time 0",0%
same,DAP diastolic arterial pressure,"[7]; iv 1.0 mg/kg, Time 0",55 mmHg
same,LVP % Change,"[7]; iv 1.0 mg/kg, Time 0",0%
same,LVP left ventricular pressure,"[7]; iv 1.0 mg/kg, Time 0",108 mmHg
same,MAP % Change,"[7]; iv 1.0 mg/kg, Time 0",0%
same,MAP mean arterial pressure,"[7]; iv 1.0 mg/kg, Time 0",74 mmHg
same,SAP % Change,"[7]; iv 1.0 mg/kg, Time 0",0%
same,SAP systolic arterial pressure,"[7]; iv 1.0 mg/kg, Time 0",105 mmHg
same,DAP % Change,"[7]; iv 1.0 mg/kg, Time 5",15%
same,DAP diastolic arterial pressure,"[7]; iv 1.0 mg/kg, Time 5",63 mmHg
same,LVP % Change,"[7]; iv 1.0 mg/kg, Time 5",11%
same,LVP left ventricular pressure,"[7]; iv 1.0 mg/kg, Time 5",120 mmHg
same,MAP % Change,"[7]; iv 1.0 mg/kg, Time 5",15%
same,MAP mean arterial pressure,"[7]; iv 1.0 mg/kg, Time 5",85 mmHg
same,SAP % Change,"[7]; iv 1.0 mg/kg, Time 5",15%
same,SAP systolic arterial pressure,"[7]; iv 1.0 mg/kg, Time 5",121 mmHg
same,DAP % Change,"[7]; iv 1.0 mg/kg, Time 15",33%
same,DAP diastolic arterial pressure,"[7]; iv 1.0 mg/kg, Time 15",73 mmHg
same,LVP % Change,"[7]; iv 1.0 mg/kg, Time 15",29%
same,LVP left ventricular pressure,"[7]; iv 1.0 mg/kg, Time 15",140 mmHg
same,MAP % Change,"[7]; iv 1.0 mg/kg, Time 15",35%
same,MAP mean arterial pressure,"[7]; iv 1.0 mg/kg, Time 15",100 mmHg
same,SAP % Change,"[7]; iv 1.0 mg/kg, Time 15",35%
same,SAP systolic arterial pressure,"[7]; iv 1.0 mg/kg, Time 15",142 mmHg
same,DAP % Change,"[7]; iv 1.0 mg/kg, Time 25",75%
same,DAP diastolic arterial pressure,"[7]; iv 1.0 mg/kg, Time 25",97 mmHg
same,LVP % Change,"[7]; iv 1.0 mg/kg, Time 25",50%
same,LVP left ventricular pressure,"[7]; iv 1.0 mg/kg, Time 25",162 mmHg
same,MAP % Change,"[7]; iv 1.0 mg/kg, Time 25",68%
same,MAP mean arterial pressure,"[7]; iv 1.0 mg/kg, Time 25",124 mmHg
same,SAP % Change,"[7]; iv 1.0 mg/kg, Time 25",55%
same,SAP systolic arterial pressure,"[7]; iv 1.0 mg/kg, Time 25",163 mmHg
same,DAP % Change,"[7]; iv 1.0 mg/kg, Time 30",32%
same,DAP diastolic arterial pressure,"[7]; iv 1.0 mg/kg, Time 30",73 mmHg
same,LVP % Change,"[7]; iv 1.0 mg/kg, Time 30",33%
same,LVP left ventricular pressure,"[7]; iv 1.0 mg/kg, Time 30",144 mmHg
same,MAP % Change,"[7]; iv 1.0 mg/kg, Time 30",32%
same,MAP mean arterial pressure,"[7]; iv 1.0 mg/kg, Time 30",98 mmHg
same,SAP % Change,"[7]; iv 1.0 mg/kg, Time 30",28%
same,SAP systolic arterial pressure,"[7]; iv 1.0 mg/kg, Time 30",134 mmHg
same,DAP % Change,"[7]; iv 5.0 mg/kg, Time 0",0%
same,DAP diastolic arterial pressure,"[7]; iv 5.0 mg/kg, Time 0",71 mmHg
same,LVP % Change,"[7]; iv 5.0 mg/kg, Time 0",0%
same,LVP left ventricular pressure,"[7]; iv 5.0 mg/kg, Time 0",144 mmHg
same,MAP % Change,"[7]; iv 5.0 mg/kg, Time 0",0%
same,MAP mean arterial pressure,"[7]; iv 5.0 mg/kg, Time 0",95 mmHg
same,SAP % Change,"[7]; iv 5.0 mg/kg, Time 0",0%
same,SAP systolic arterial pressure,"[7]; iv 5.0 mg/kg, Time 0",132 mmHg
same,DAP % Change,"[7]; iv 5.0 mg/kg, Time 5",0%
same,DAP diastolic arterial pressure,"[7]; iv 5.0 mg/kg, Time 5",71 mmHg
same,LVP % Change,"[7]; iv 5.0 mg/kg, Time 5",5%
same,LVP left ventricular pressure,"[7]; iv 5.0 mg/kg, Time 5",151 mmHg
same,MAP % Change,"[7]; iv 5.0 mg/kg, Time 5",4%
same,MAP mean arterial pressure,"[7]; iv 5.0 mg/kg, Time 5",99 mmHg
same,SAP % Change,"[7]; iv 5.0 mg/kg, Time 5",7%
same,SAP systolic arterial pressure,"[7]; iv 5.0 mg/kg, Time 5",142 mmHg
same,DAP % Change,"[7]; iv 5.0 mg/kg, Time 15",39%
same,DAP diastolic arterial pressure,"[7]; iv 5.0 mg/kg, Time 15",98 mmHg
same,LVP % Change,"[7]; iv 5.0 mg/kg, Time 15",28%
same,LVP left ventricular pressure,"[7]; iv 5.0 mg/kg, Time 15",184 mmHg
same,MAP % Change,"[7]; iv 5.0 mg/kg, Time 15",37%
same,MAP mean arterial pressure,"[7]; iv 5.0 mg/kg, Time 15",130 mmHg
same,SAP % Change,"[7]; iv 5.0 mg/kg, Time 15",33%
same,SAP systolic arterial pressure,"[7]; iv 5.0 mg/kg, Time 15",176 mmHg
same,DAP % Change,"[7]; iv 5.0 mg/kg, Time 25",−3%
same,DAP diastolic arterial pressure,"[7]; iv 5.0 mg/kg, Time 25",69 mmHg
same,LVP % Change,"[7]; iv 5.0 mg/kg, Time 25",11%
same,LVP left ventricular pressure,"[7]; iv 5.0 mg/kg, Time 25",160 mmHg
same,MAP % Change,"[7]; iv 5.0 mg/kg, Time 25",1%
same,MAP mean arterial pressure,"[7]; iv 5.0 mg/kg, Time 25",96 mmHg
same,SAP % Change,"[7]; iv 5.0 mg/kg, Time 25",−5%
same,SAP systolic arterial pressure,"[7]; iv 5.0 mg/kg, Time 25",126 mmHg
same,DAP % Change,"[7]; iv 5.0 mg/kg, Time 30",−1%
same,DAP diastolic arterial pressure,"[7]; iv 5.0 mg/kg, Time 30",70 mmHg
same,LVP % Change,"[7]; iv 5.0 mg/kg, Time 30",13%
same,LVP left ventricular pressure,"[7]; iv 5.0 mg/kg, Time 30",163 mmHg
same,MAP % Change,"[7]; iv 5.0 mg/kg, Time 30",4%
same,MAP mean arterial pressure,"[7]; iv 5.0 mg/kg, Time 30",99 mmHg
same,SAP % Change,"[7]; iv 5.0 mg/kg, Time 30",0%
same,SAP systolic arterial pressure,"[7]; iv 5.0 mg/kg, Time 30",132 mmHg
same,Bioavailability by parenteral routes of administration,[8],decreased parenteral bioavailability
